# Measurements reported in ChEMBL document CHEMBL1143196, “Discovery of kinase inhibitors by high-throughput docking and scoring based on a transferable linear interaction energy model” (J Med Chem, 2008).
# pIC50: −log10 of the molar value.
# Biological target: Epidermal growth factor receptor (Homo sapiens, UniProt P00533)
# Test: not given
# Conditions: not given
# Chain of Epidermal growth factor receptor (P00533 whole entry): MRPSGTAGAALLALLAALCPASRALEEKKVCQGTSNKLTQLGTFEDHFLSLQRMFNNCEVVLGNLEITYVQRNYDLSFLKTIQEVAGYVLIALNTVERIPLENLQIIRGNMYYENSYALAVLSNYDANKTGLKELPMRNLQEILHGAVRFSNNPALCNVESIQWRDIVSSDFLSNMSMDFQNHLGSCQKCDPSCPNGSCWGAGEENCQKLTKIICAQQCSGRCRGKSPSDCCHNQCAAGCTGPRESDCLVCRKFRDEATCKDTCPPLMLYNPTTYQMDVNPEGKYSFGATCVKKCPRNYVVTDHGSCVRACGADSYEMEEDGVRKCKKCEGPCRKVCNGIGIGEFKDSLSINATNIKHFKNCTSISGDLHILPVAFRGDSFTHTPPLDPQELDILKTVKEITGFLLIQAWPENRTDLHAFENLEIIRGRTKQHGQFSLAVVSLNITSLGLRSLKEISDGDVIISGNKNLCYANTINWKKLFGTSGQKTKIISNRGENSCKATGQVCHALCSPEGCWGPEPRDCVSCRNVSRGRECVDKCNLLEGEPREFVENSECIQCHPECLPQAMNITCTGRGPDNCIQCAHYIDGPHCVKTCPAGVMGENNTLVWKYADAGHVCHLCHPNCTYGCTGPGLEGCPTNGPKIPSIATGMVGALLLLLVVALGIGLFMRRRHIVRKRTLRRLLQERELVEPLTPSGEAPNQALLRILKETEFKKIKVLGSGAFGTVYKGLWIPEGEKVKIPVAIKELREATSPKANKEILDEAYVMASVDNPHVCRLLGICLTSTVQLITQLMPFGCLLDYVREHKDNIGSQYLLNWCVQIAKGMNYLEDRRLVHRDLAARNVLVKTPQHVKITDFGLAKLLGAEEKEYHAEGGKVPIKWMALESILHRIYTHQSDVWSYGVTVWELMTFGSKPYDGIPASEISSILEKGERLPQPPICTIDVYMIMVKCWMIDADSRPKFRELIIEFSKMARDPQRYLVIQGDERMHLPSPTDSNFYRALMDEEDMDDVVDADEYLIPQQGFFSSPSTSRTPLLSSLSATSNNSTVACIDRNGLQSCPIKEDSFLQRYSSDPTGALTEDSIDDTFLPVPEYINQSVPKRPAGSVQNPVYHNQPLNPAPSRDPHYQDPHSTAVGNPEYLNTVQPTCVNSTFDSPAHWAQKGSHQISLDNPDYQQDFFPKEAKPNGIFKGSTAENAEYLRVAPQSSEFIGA
row,SMILES,pIC50
1,OCCN(CCO)CCCNc1c(Br)cccc1Nc1ncnc2ccncc12,8.92
2,COc1cccc(Nc2ncnc3ccncc23)c1N,6.88
3,CN(C)CCCCNc1c(Br)cccc1Nc1ncnc2ccncc12,8.13
4,CN(CC(O)CO)c1c(Br)cccc1Nc1ncnc2ccncc12 (stereo not given),8.49
5,Cc1cccc(Nc2ncnc3ccncc23)c1NCCCN1CCN(C)CC1,8.25
6,Nc1c(Nc2ncnc3ccncc23)cccc1[N+](=O)[O-],7.39
7,Brc1cccc(Nc2ncnc3ccncc23)c1NCCN1CCOCC1,8.49
8,Brc1cccc(Nc2ncnc3ccncc23)c1NCCCN1CCOCC1,8.72
9,Brc1cccc(Nc2ncnc3cnc(NCCn4ccnc4)nc23)c1,8.63
10,Cc1cccc(Nc2ncnc3cnc(N(C)C)nc23)c1,8.39
11,Brc1cccc(Nc2ncnc3ccncc23)c1NCCc1c[nH]cn1,9.04
12,O=S(=O)(O)CCNc1c(Br)cccc1Nc1ncnc2ccncc12,8.85
13,CN(CCO)c1c(Br)cccc1Nc1ncnc2ccncc12,8.58
14,COc1cc2ncnc(Nc3ccc(Br)cc3)c2cc1OC,10.14
15,Cc1cccc(Nc2ncnc3ccncc23)c1NCCCn1ccnc1,8.45
16,COc1c(Br)cccc1Nc1ncnc2ccncc12,7.40
17,CN(C)CCNc1c(Br)cccc1Nc1ncnc2ccncc12,7.34
18,CN(C)CCN(C)c1c(Br)cccc1Nc1ncnc2ccncc12,7.39
19,CC(=O)Nc1c(Br)cccc1Nc1ncnc2ccncc12,7.53
20,O=C(O)CCCNc1c(Br)cccc1Nc1ncnc2ccncc12,9.55
21,CN(CC(=O)O)c1c(Br)cccc1Nc1ncnc2ccncc12,7.79
22,NNc1c(Br)cccc1Nc1ncnc2ccncc12,8.14
23,Nc1cc(C(F)(F)F)ccc1Nc1ncnc2ccncc12,5.32

row,SMILES,pIC50
1,CN(C)CCCCCNc1c(Br)cccc1Nc1ncnc2ccncc12,8.07
2,OCCN(CCO)CCNc1c(Br)cccc1Nc1ncnc2ccncc12,8.03
3,COc1ccc(Nc2ncnc3ccncc23)c(N)c1,6.17
4,CN(C)c1cccc(Nc2ncnc3ccncc23)c1N,5.74
5,OCN(CO)c1c(Br)cccc1Nc1ncnc2ccncc12,7.85
6,Cc1cccc(Nc2ncnc3cnc(NCCN4CCOCC4)nc23)c1,8.63
7,Brc1cccc(Nc2ncnc3ccncc23)c1NCCCCN1CCOCC1,8.26
8,CN(C)c1ccc(Nc2ncnc3ccncc23)c(N)c1,5.31
9,Nc1cc(Br)ccc1Nc1ncnc2ccncc12,7.59
10,OCCNc1c(Br)cccc1Nc1ncnc2ccncc12,9.61
11,CNc1ncc2ncnc(Nc3cccc(Br)c3)c2n1,9.11
12,O=C(O)CCNc1c(Br)cccc1Nc1ncnc2ccncc12,9.21
13,CN1CCN(CCCNc2c(Br)cccc2Nc2ncnc3ccncc23)CC1,8.30
14,OCCN(CCO)c1c(Br)cccc1Nc1ncnc2ccncc12,7.92
15,Brc1cccc(Nc2ncnc3ccncc23)c1NCCCn1ccnc1,9.29
16,O=C(O)CNc1c(Br)cccc1Nc1ncnc2ccncc12,8.82
17,OCC(O)CNc1c(Br)cccc1Nc1ncnc2ccncc12 (stereo not given),9.03
18,CCCOc1cc2ncnc(Nc3cccc(Br)c3)c2cc1OCCC,9.76
19,Cc1cccc(Nc2ncnc3ccncc23)c1NCCCCN(C)C,8.26
20,COc1cc2ncnc(Nc3cccc(C(F)(F)F)c3)c2cc1OC,9.61
21,CN(C)CCCNc1c(Br)cccc1Nc1ncnc2ccncc12,8.05
22,COc1ccc(CNc2cc3c(Nc4cccc(Br)c4)ncnc3cn2)cc1,8.63

# The next lines start with the values.
row,pIC50,SMILES
1,6.07,Nc1c(F)cccc1Nc1ncnc2ccncc12
2,7.07,CN(C)c1ccc2ncnc(Nc3cccc(Br)c3)c2c1
3,7.88,Fc1c(Br)cccc1Nc1ncnc2ccncc12
4,6.26,O=[N+]([O-])c1ccc2c(Nc3cccc(I)c3)ncnc2c1
5,7.45,Brc1cccc(Nc2ncnc3ccncc23)c1
6,8.39,CNc1ccc2ncnc(Nc3cccc(Br)c3)c2c1
7,8.50,CNc1ccc2ncnc(Nc3cccc(Br)c3)c2n1
8,8.58,COc1cc2c(Nc3cccc(Br)c3)ncnc2cn1
9,8.32,Oc1ccc2c(Nc3cccc(Br)c3)ncnc2c1
10,8.18,Nc1cc2c(Nc3cccc(Br)c3)ncnc2cc1Cl
11,6.92,COc1ccc2ncnc(Nc3ccccc3)c2c1 [listing 1 of 2 here]
12,8.01,CN(C)c1ccc2ncnc(Nc3cccc(Br)c3)c2n1
13,7.15,Nc1c(O)cccc1Nc1ncnc2ccncc12
14,8.00,Nc1c(Br)cccc1Nc1ncnc2ccncc12
15,7.25,COc1ccc2ncnc(Nc3ccccc3)c2c1 [listing 2 of 2 here]
16,6.48,CN(C)c1ccc2c(Nc3cccc(Br)c3)ncnc2n1
17,6.79,CN(C)c1cc2ncnc(Nc3cccc(Br)c3)c2cc1N
18,7.35,Fc1ccc2ncnc(Nc3cccc(Br)c3)c2n1
19,7.39,Clc1cc2c(Nc3cccc(Br)c3)ncnc2cn1
20,6.04,O=[N+]([O-])c1ccc2ncnc(Nc3cccc(Br)c3)c2c1
21,6.61,Nc1ccccc1Nc1ncnc2cc(Br)ncc12

row,pIC50,SMILES
1,8.36,COc1ccc2ncnc(Nc3cccc(Br)c3)c2n1
2,6.60,Nc1ccccc1Nc1ncnc2ccncc12
3,7.09,Ic1cccc(Nc2ncnc3ccccc23)c1
4,7.88,CNc1ncc2ncnc(Nc3ccccc3)c2n1
5,7.95,CN(C)c1ccc2c(Nc3cccc(Br)c3)ncnc2c1
6,7.76,Cc1cccc(Nc2ncnc3cnc(N)nc23)c1
7,7.63,Clc1cccc(Nc2ncnc3ccccc23)c1
8,6.45,COc1ccc2ncnc(Nc3cccc(Br)c3)c2c1
9,5.43,COc1cc2ncnc(Nc3ccccc3N)c2cn1
10,7.16,CNc1cc2ncnc(Nc3cccc(Br)c3)c2cc1[N+](=O)[O-]
11,5.27,Nc1cc2ncnc(Nc3ccccc3N)c2cn1
12,7.56,Brc1cccc(Nc2ncnc3ccccc23)c1
13,9.76,Oc1cc2ncnc(Nc3cccc(Br)c3)c2cc1O
14,7.46,Brc1cccc(Nc2ncnc3cccnc23)c1
15,7.53,COc1cc2ncnc(Nc3ccccc3)c2cc1OC
16,8.11,Nc1ccc2ncnc(Nc3cccc(Br)c3)c2n1
17,7.08,Clc1ncc2ncnc(Nc3cccc(Br)c3)c2n1
18,6.90,Fc1cc2c(Nc3cccc(Br)c3)ncnc2cn1
19,7.39,CC(=O)Nc1ccc2c(Nc3cccc(Br)c3)ncnc2c1
20,6.23,FC(F)(F)c1cccc(Nc2ncnc3ccccc23)c1
21,6.92,Nc1c(Cl)cccc1Nc1ncnc2ccncc12

# Tested on: not listed separately
# Test: cells
# Conditions: T-cell
row,SMILES,pIC50
1,COc1cc2nc(Nc3c(C)cccc3Cl)c3cncn3c2cc1N1CC(C)NC(C)C1 (stereo not given),6.12
2,Cc1cccc(Cl)c1Nc1nc2ccc(N3CCOCC3)cc2n2cncc12,6.11
3,Cc1cccc(Cl)c1Nc1nc2cc(N3CCOCC3)ccc2n2cncc12,6.00
4,Cc1cccc(Cl)c1Nc1nc2ccc(NCCN3CCOCC3)cc2n2cncc12,5.89
5,Cc1cccc(Cl)c1Nc1nc2cc3c(cc2n2cncc12)OCCO3,5.66
6,Cc1cccc(Cl)c1Nc1nc2ccc(N3CC(C)NC(C)C3)cc2n2cncc12 (stereo not given),6.47
7,Cc1cccc(Cl)c1Nc1nc2ccc(NCCN(C)C)cc2n2cncc12,6.06
8,Cc1cccc(Cl)c1Nc1nc2ccc(N(C)C)cc2n2cncc12,5.70
9,COc1cc2c(cc1NCCN1CCOCC1)nc(Nc1c(C)cccc1Cl)c1cncn12,6.55
10,COc1cc2nc(Nc3c(C)cccc3C)c3cncn3c2cc1OC,5.96
11,Cc1cccc(Cl)c1Nc1nc2ccc(NCCCN3CCOCC3)cc2n2cncc12,6.12
12,CCN1CCN(c2ccc3nc(Nc4c(C)cccc4Cl)c4cncn4c3c2)CC1,6.57
13,COc1ccc2c(c1)nc(Nc1c(C)cccc1Cl)c1cncn12,5.59
14,Cc1cccc(Cl)c1Nc1nc2cc(O)c(O)cc2n2cncc12,< 5.05
15,Cc1cccc(Cl)c1Nc1nc2cc(NCCCN(C)C)ccc2n2cncc12,6.32
16,COc1cccc2nc(Nc3c(C)cccc3Cl)c3cncn3c12,5.64
17,Cc1cccc(Cl)c1Nc1nc2ccc(N3CCN(C)CC3)cc2n2cncc12,6.62
18,Cc1cccc(Cl)c1Nc1nc2cc(N3CC(C)NC(C)C3)ccc2n2cncc12 (stereo not given),6.24

row,SMILES,pIC50
1,Cc1cccc(Cl)c1Nc1nc2ccc(N)cc2n2cncc12,5.80
2,COc1cc2nc(Nc3c(C)cccc3Cl)c3cncn3c2cc1OC,6.17
3,Cc1cccc(Cl)c1Nc1nc2ccc(N3CCCN(C)CC3)cc2n2cncc12,6.27
4,COc1cc2c(cc1NCCN(C)C)nc(Nc1c(F)cccc1Cl)c1cncn12,6.62
5,Cc1cccc(Cl)c1Nc1nc2cc3c(cc2n2cncc12)OCO3,5.70
6,Cc1cccc(Cl)c1Nc1nc2cc(N3CCN(C)CC3)ccc2n2cncc12,6.14
7,COc1cc2c(cc1NCCN(C)C)nc(Nc1c(C)cccc1Cl)c1cncn12,6.72
8,Cc1cccc(Cl)c1Nc1nc2cc(N3CCNCC3)ccc2n2cncc12,6.00
9,CCNc1ccc2nc(Nc3c(C)cccc3Cl)c3cncn3c2c1,5.66
10,Cc1cccc(Cl)c1Nc1nc2ccc(N3CCNCC3)cc2n2cncc12,6.42
11,COc1cc2c(cc1OCCN1CCOCC1)nc(Nc1c(C)cccc1Cl)c1cncn12,6.33
12,Cc1cccc(Cl)c1Nc1nc2cc(NCCN(C)C)ccc2n2cncc12,6.28
13,CCN(CC)c1ccc2c(c1)nc(Nc1c(C)cccc1Cl)c1cncn12,5.77
14,CC(=O)Nc1ccc2nc(Nc3c(C)cccc3Cl)c3cncn3c2c1,5.85
15,CCN(CC)c1ccc2nc(Nc3c(C)cccc3Cl)c3cncn3c2c1,5.59
16,Cc1cccc(Cl)c1Nc1nc2ccc(N3CCN(C=O)CC3)cc2n2cncc12,6.28
17,COc1ccc2nc(Nc3c(C)cccc3Cl)c3cncn3c2c1,5.85

# Tested on: not listed separately
# Test: Inhibition of CDK2/Cyclin A
# Conditions: not given
row,pIC50,SMILES
1,4.36,Nc1nc(OCCC2CCCCC2)c2nc[nH]c2n1
2,4.47,C=C(COc1nc(N)nc2nc[nH]c12)c1ccccc1
3,< 4.00,CCCCCCCOc1nc(N)nc2[nH]cnc12
4,4.60,CCC(C)Oc1nc(N)nc2[nH]cnc12 (stereo not given)
5,4.17,CCCOc1nc(N)nc2[nH]cnc12
6,4.66,Nc1nc(OCC2=CCCCC2)c2nc[nH]c2n1
7,4.82,CCC(C)COc1nc(N)nc2[nH]cnc12 (stereo not given)

row,SMILES,pIC50
1,Nc1nc(OCc2ccccc2)c2nc[nH]c2n1 [6-O-BENZYLGUANINE],4.46
